Source: patent US9809822B2 (priority 2013, dated 2017)
Several values for one entry are separate records, joined by “and”; a condition that tells them apart may be missing. Equal entries are not always repeated.

Tests used:
[1] = tested on: cancer cells; conditions: background statement; cited from earlier work
[2] = background statement; cited from earlier work
[3] = design: species or system female nude mice; conditions: female, nude, mouse, in vivo
Description: BxPC-3 cells in logarithmic growth phase were used.
Samples A and B in 2.2.2 were used.

[4] = tested on: acute lymphoblastic leukemia T-cells (CCRF-CEM); assay: Inhibition of triptolide-SGC8C conjugate on the growth of cancer cells in vitro (absorbance, MTT); type: cell-based; conditions: replicates, listed as TP
Protocol: Cell lines: acute lymphoblastic leukemia T-cells (CCRF-CEM) and hepatocyte (L-02).
Fetal bovine serum and two antibiotics were added into the above media so as to form a final culture medium with a final content of 10% and 1%. Cells were incubated in an incubator at 37° C. and with 5% CO2. Growth conditions of the cells were constantly observed and cell counting was performed, and all the experiments were carried out on cells in logarithmic growth phase.
Study on anti-cancer activity: acute lymphoblastic leukemia T-cells (CCRF-CEM) and liver cells (L-02) were uniformly seeded into a 96-well plate in a low density (1×10^3˜1×10^4, depending on the specific cell lines) and were placed in an incubator overnight for adhering, the used medium was replaced by a serum free medium containing drug. […] The cells were then cultured in the incubator at 37° C. and with 5% CO2. Cell activities were measured by MTT. The operations were repeated for 3 times.

[5] = tested on: BxPC-3 pancreatic cancer cells; assay: Inhibition of triptolide-AS1411 conjugate on the growth of pancreatic cancer cells in vitro (absorbance, MTT); type: cell-based, human; conditions: for Absorbance (24 h) / Absorbance (48 h): replicate wells
Protocol: 5 pancreatic cancer cell lines (MiaPaCa-2, PANC-1, BxPC-3, SW1990 and ASPC-1) used in the experiments were all purchased from Shanghai Cell Bank.
Fetal bovine serum and two antibiotics were added into the above media so as to form a final culture medium with a final content of 10% and 1%. Cells were incubated in an incubator at 37° C. and with 5% CO2.
Pancreatic cancer cells (MiaPaCa-2, PANC-1, BxPC-3, SW1990 and ASPC-1) were uniformly seeded into a 96-well plate with a low density (1×10^3˜1×10^4, depending on the specific cell lines, and the conditions were referred to Shanghai Cell Bank). After placed in incubator for adhering overnight, the used medium was replaced by a serum free medium containing drug. […] The cells were then incubated in the incubator at 37° C. and with 5% CO2. Cell activities were measured by MTT. The operation was performed for 4 times.

[6] = C14 hydroxyl replaced by electron withdrawing group; background statement; cited from earlier work

Row | SMILES | concentration that effectively inhibits the growth of the cancer cells [1] [ng/mL] | solubility in water [2] | time after administration at which drug concentration in blood reaches a maximum [3] [h] | Absorbance (CCRF-CEM) ([4]; 25 nM) | Absorbance (CCRF-CEM) ([4]; 50 nM) | Absorbance (CCRF-CEM) ([4]; 100 nM) | Absorbance (CCRF-CEM) ([4]; 200 nM) | Absorbance (24 h) ([5]; 25 nM) | Absorbance (48 h) ([5]; 25 nM) | Absorbance (24 h) ([5]; 50 nM) | Absorbance (48 h) ([5]; 50 nM) | Absorbance (24 h) ([5]; 100 nM) | Absorbance (48 h) ([5]; 100 nM) | Absorbance (24 h) ([5]; 200 nM) | Absorbance (48 h) ([5]; 200 nM) | effect on proliferation of pancreatic cancer cells ([5]; compared with blank references, concentration range 50 nM-200 nM, time and dose dependent) | cytotoxicity compared with TP [6]
1 | CC(C)[C@]12O[C@H]1[C@@H]1O[C@]13[C@]1(O[C@H]1C[C@H]1C4=C(CC[C@@]13C)C(=O)OC4)[C@@H]2O [Triptolide] | 2 to 10 | not soluble in water | 0.5 | 0.7555 and 0.7582 and 0.755 | 0.5502 and 0.5441 and 0.5447 | 0.2608 and 0.2717 and 0.2802 | 0.1902 (2×) and 0.18 | 0.745 and 0.764 and 0.718 and 0.690 | 0.296 and 0.322 (2×) and 0.317 | 0.436 and 0.430 and 0.454 and 0.424 | 0.219 and 0.223 and 0.231 and 0.220 | 0.393 and 0.397 and 0.403 and 0.364 | 0.211 and 0.206 and 0.223 and 0.212 | 0.365 and 0.366 and 0.402 and 0.399 | 0.200 and 0.218 and 0.222 and 0.213 | significantly inhibit | 
2 | CC(C)[C@]12O[C@H]1[C@@H]1O[C@]13[C@]1(O[C@H]1C[C@H]1C4=C(CC[C@@]13C)C(=O)OC4)[C@H]2F [Compound M-2] |  |  |  |  |  |  |  |  |  |  |  |  |  |  |  |  | greater than TP
3 | CC(C)[C@]12O[C@H]1[C@@H]1O[C@]13[C@]1(O[C@H]1C[C@H]1C4=C(CC[C@@]13C)C(=O)OC4)[C@@H]2F [Compound M-1] |  |  |  |  |  |  |  |  |  |  |  |  |  |  |  |  | greater than TP
